The source of these data is patent US6497896B2, “Method for administering camptothecins via injection of a pharmaceutical composition comprising microdroplets containing a camptothecin” (priority 2001, dated 2002).

The test system of series [1] is A375 human melanoma xenograft. To be noted: for survivors (FIG. 10 comparison): I.P. The text has this:
The following study evaluates two intravenous formulations according to the present invention against human tumor xenografts in athymic nude mice. […] Examples 1 and 2 describe the compositions of IDD-P (FIG. 1; formulation 1-F) and IDD-D respectively.
Husbandry: Female nude mice were 16 weeks of age (NCR-nufBr; Taconic Farms) for the A375 study. The mice were fed ad libitum water (reverse osmosis, 1 ppm C1) and autoclaved Prolab NIH-31 M/5% Rodent Diet consisting of 18% protein, 5% fat, 6% fiber, and 8% ash. Mice were housed in static microisolators on a 12-hour light cycle at 21-22° C. (70-72° F.) and 40%-60% humidity. The animal care and use program is AAALAC International accredited and specifically follows and complies with the recommendation of the National Research Council's Guidefor the Care and Use of Laboratory Animals.
Tumor Implantation: An A375 melanoma fragment (1 mm 3) was implanted subcutaneously in the flank of each nude mouse. When the tumors reached the 60-112 mg size range, the mice were sorted into treatment groups (on Day 1) such that the group mean tumor sizes ranged from 71.3 mg-72.5 mg. Estimated tumor weight was calculated using the formula: [formula]
CAMPTOSAR®, DTIC®, and HYCAMTIN® were obtained as the marketed drugs and solutions were prepared fresh on the day of dosing. CAMPTOSAR® (irinotecan, Phannacia & Upjohn Company, 20 mg/ml) and DTIC® (dacarbazine, Bayer Corporation, 20 mg/ml) were diluted with D5W. HYCAMTIN® (topotecan, SmithKlein Beecham) was reconstituted with water at 1 mg/ml.
Treatments: Volumes of 0.20 ml per 20-g mouse, body-weight adjusted, were administered once daily. Tumor-bearing athymic nude mice were matched on Day 1 into 13 groups of ten animals and drug administration was initiated. […] Three reference drugs were administered I.P.: CAMPTOSAR® was given in three doses at weekly intervals (qwk×3); HYCAMTIN® was given in four doses at four-day intervals (q4d×4); and DTIC® was given in five consecutive daily doses (qd×5). The tumor growth control group for these reference treatments received no treatment (Group 1).
Tumor Growth Endpoint: The tumor growth delay (TGD) method was used to assess efficacy. Tumor dimensions were measured twice weekly until the experiment was terminated on Day 62. Each animal was euthanized as a “cancer death” when its A375 melanoma reached a size of 2.0 g. Mean Day of Survival (MDS) values for all groups were based on the calculated day of death of each mouse, which is given by the formula: [formula]
TGD values, which represent treatment-effected extensions of survival time, were calculated from MDStreated−MDScontrol, the difference in MDS value for a given treatment group and the MDS value for A375 melanoma-bearing mice that received no treatment or the corresponding vehicle.
At the termination of the experiment on Day 62, treatment responses in survivors were classified as either complete tumor regression (CR), partial tumor regression (PR), or stable/progressive disease (SD/PD). A CR response indicates the absence of measurable tumor. In a PR response, the final tumor weight is lower than on Day 1 but larger than 0 mg. In a SD/PD response, mice survived to Day 62 with a progressively growing or stable tumor size that had not reached the 2.0-g endpoint.
Evaluation of Toxicity: The maximum tolerated dose (MTD), as defined by the NCI, is the highest dose at which no more than 10% of the animals die and the group mean body-weight loss is no more than 20%. Body weights were measured daily for four or five days and then twice weekly thereafter until the experiments were terminated on Day 62 of the study. The animals were also examined frequently for clinical signs of any adverse, drug-related side effects. Because mice are not tagged for MTD studies, only the mean group body weights recorded in the appended raw data are significant in those studies.

In series [2] the target is human serum albumin (HSA) (Homo sapiens, UniProt P02768). To be noted: PBS at pH 7.4; cited from earlier work.
The conditions of series [3]: whole blood; cited from earlier work.
For series [4] the following is noted: human plasma, pH 7.4, 37° C.; cited from earlier work.
For series [5] the following is noted: cited from earlier work.
[6] abbreviates: in 3% DMA 2.0 mg/kg p.o., q3d×4.
Setting [7] is: in 3% DMA 4.0 mg/kg p.o., q3d×4.

Like-named read-outs stand apart in the source and are kept apart here.

human serum albumin (HSA), sequence (P02768 25-609): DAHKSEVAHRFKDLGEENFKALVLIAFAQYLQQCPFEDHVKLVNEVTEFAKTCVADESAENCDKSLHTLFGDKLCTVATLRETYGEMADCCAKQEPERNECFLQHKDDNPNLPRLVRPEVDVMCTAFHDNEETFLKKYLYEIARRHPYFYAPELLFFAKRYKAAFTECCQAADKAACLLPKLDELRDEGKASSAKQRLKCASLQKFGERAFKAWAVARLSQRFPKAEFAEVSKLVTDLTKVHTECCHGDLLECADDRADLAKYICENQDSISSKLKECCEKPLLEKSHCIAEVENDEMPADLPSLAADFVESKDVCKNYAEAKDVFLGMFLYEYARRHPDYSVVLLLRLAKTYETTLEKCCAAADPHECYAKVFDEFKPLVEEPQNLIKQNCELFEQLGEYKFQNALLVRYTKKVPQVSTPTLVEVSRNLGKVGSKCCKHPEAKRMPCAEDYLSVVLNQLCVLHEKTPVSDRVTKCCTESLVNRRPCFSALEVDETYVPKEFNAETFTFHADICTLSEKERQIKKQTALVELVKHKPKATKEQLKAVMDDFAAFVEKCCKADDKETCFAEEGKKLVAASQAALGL

Consider `CCc1c2c(nc3ccc(OC(=O)N4CCC(N5CCCCC5)CC4)cc13)-c1cc3c(c(=O)n1C2)COC(=O)[C@]3(O)CC` [CAMPTOSAR®, irinotecan], for which the “62-day survivors (number of 10 mice)” value in series [1] (100 mg/kg I.P., qwk×3) is on record as “one”. For the same compound, in series [1] (100 mg/kg I.P., qwk×3, Group 5 (n=9)), the “mean day of survival (MDS)” value stood at 47.3 days. The “tumor growth delay (TGD)” value in series [1] (100 mg/kg I.P., qwk×3, vs untreated Group 1) is on record as 17 days. The “survivors (FIG. 10 comparison)” value in series [1] (optimal regimen (100 mg/kg qwk×3)) was determined as 0%.

Turning to `CC[C@@]1(O)C(=O)OCc2c1cc1n(c2=O)Cc2cc3ccccc3nc2-1` [camptothecin, 20(S)-camptothecin], in series [2], the “affinity of HSA for carboxylate form versus α-hydroxy lactone form” value is listed as 150 fold. For the same compound, in series [3], the “equilibrium α-hydroxy lactone concentration” value is recorded as 5.3% and the half-life of lactone is reported as 22 min. Further, in series [4], the “% α-hydroxy lactone at equilibrium” value is 0.2% and the “half-life of lactone ring opening” value is on record as 11 min.

In the case of `CC[C@@](O)(C(=O)[O-])c1cc2n(c(=O)c1CO)Cc1cc3ccccc3nc1-2.[Na+]` [Sodium camptothecin], in series [5] (administered via i.v.), the side effects entry was “unpredictable side effects such as myelosuppression and hemorrhagic cystitis”. The “antitumor activity in clinical trials” value in series [5] (solubilized by sodium hydroxide in water, early 70's) is listed as “antitumor activity”.

`CN(C)/N=N/c1[nH]cnc1C(N)=O` [DTIC®, dacarbazine]: the “mean day of survival (MDS)” value in series [1] (150 mg/kg I.P., qd×5, Group 7 (n=8)) is 37.6 days. Further, the “tumor growth delay (TGD)” value in series [1] (150 mg/kg I.P., qd×5, vs untreated Group 1, not statistically significant) worked out at 7.3 days. Moreover, the “survivors (FIG. 10 comparison)” value in series [1] (optimal regimen (150 mg/kg qd×5)) turned out to be 10%.

In the case of `CC[C@@]1(O)C(=O)OCc2c1cc1n(c2=O)Cc2cc3c([N+](=O)[O-])cccc3nc2-1` [9-nitro-camptothecin, 9-nitro-20(S)-camptothecin], the “CR responses, share of mice” value in series [1] (2 mg/kg p.o., q3d×4) is given as 40%. Moreover, in series [1] (4 mg/kg p.o., q3d×4), the “CR responses, share of mice” value stood at 40%. Further, in series [1] (setting [6]), the 62-day survival rate was 70%, the “62-day survivors (number of 10 mice)” value was “seven”, the “CR responses on Day 62” value was 4 and the “PR responses on Day 62” value came out at 1. In series [1] (setting [6]), the “SD/PD responses on Day 62” value was 2 and the tolerability entry is listed as “well tolerated”. In series [1] (in 3% DMA 2.0 mg/kg p.o., q3d×4, Group 13 (n=3)), the “mean day of survival (MDS)” value is given as 47.6 days. Moreover, the “tumor growth delay (TGD)” value in series [1] (in 3% DMA 2.0 mg/kg p.o., q3d×4, vs vehicle control Group 4) is 21.6 days. Also, in series [1] (setting [7]), the 62-day survival rate turned out to be 70%, the “62-day survivors (number of 10 mice)” value is recorded as “seven”, the “CR responses on Day 62” value stood at 4 and the “SD/PD responses on Day 62” value is given as 3. Moreover, in series [1] (setting [7]), the tolerability result is given as “well tolerated”. For the same compound, the “mean day of survival (MDS)” value in series [1] (in 3% DMA 4.0 mg/kg p.o., q3d×4, Group 12 (n=3)) was found to be 45.3 days. Besides, the “tumor growth delay (TGD)” value in series [1] (in 3% DMA 4.0 mg/kg p.o., q3d×4, vs vehicle control Group 4) turned out to be 19.3 days.

Take `CC[C@@]1(O)C(=O)OCc2c1cc1n(c2=O)Cc2cc3c(CN(C)C)c(O)ccc3nc2-1` [HYCAMTIN®, topotecan]: in series [1] (10 mg/kg I.P., q4d×4), the “62-day survivors (number of 10 mice)” value is “one”. Further, in series [1] (10 mg/kg I.P., q4d×4, Group 6 (n=9)), the “mean day of survival (MDS)” value was determined as 46.7 days. In addition, the “tumor growth delay (TGD)” value in series [1] (10 mg/kg I.P., q4d×4, vs untreated Group 1) is 16.4 days. Besides, the “survivors (FIG. 10 comparison)” value in series [1] (optimal regimen (10 mg/kg q4d×4)) is recorded as 0%.
